Earlier results on one molecule are cited in patent US20120237592A1, “ENDOPLASMIC RETICULUM TARGETING LIPOSOMES” (priority 2008, published 2012).

The structures appear in SMILES notation.

Series [1] has as its system HIV. To be noted: literature.
Series [2] concerns HIV-1. The settings on record: HIV-1 infected patients, literature.
The subject of series [3] is HBV. To be noted: literature.
The subject of series [4] is BVDV. To be noted: literature.

On to `CCCCN1C[C@H](O)[C@@H](O)[C@H](O)[C@H]1CO` [NB-DNJ, N-butyl-1,5-dideoxy-1,5-imino-D-glucitol], for which, in series [1], the “infectious virus released from HIV-infected cells” value is given as “greatly reduced”. Besides, the “tolerability at concentrations necessary for antiviral activity” value in series [2] is recorded as “serious side-effects”. Besides, the “secretion of HBV particles” value in series [3] is on record as “suppresses secretion of HBV particles”. For the same molecule, the “infectivity of BVDV viral progeny” value in series [4] is listed as “decreased infectivity of viral progeny”.
